Data taken from ChEMBL document CHEMBL5608113, “Targeting of CAF-induced therapy resistance in CRC organoid-stroma co-cultures” (2024).

system: Colon cancer organoid; assay: Targeting of F14 CAF-induced therapy resistance in O14 CRC organoid-stroma co-culture. Cell viability is reported without Gefitinib.; assay type: functional, Homo sapiens; conditions: Homo sapiens, Concentration 10 uM; read-out: Cell Viability

Row | Structure (SMILES) | viability at 10 µM [%]
1 | O=c1nc(-c2ccccn2)sc2ccccc12 [BTZO-1] | 117
2 | CCC(F)(F)c1cc(N2CCC(S(C)(=O)=O)CC2)nc2sc(C(N)=O)c(N)c12 [BI-605906] | 125
3 | Cc1c(C(=O)O)cc(-c2ccc(C3CCNCC3)cc2)c2ccc(-c3ccc(C(F)(F)F)cc3)cc12 | 64.2
4 | CCN(CC)S(=O)(=O)Nc1cccc(-c2ccc3c(NC(=O)C4CC4)n[nH]c3c2)c1 | 144
5 | O=C(NNS(=O)(=O)c1ccccc1)c1cc(-c2ccnnc2)ccc1F [WM-2474] | 77.4
6 | CN(C)C(=O)N1CC[C@H](NC2=Nc3cc(F)ccc3N(CC(F)F)c3ccc(Cl)cc32)C1 | 87.4
7 | C[C@@]1(Cc2ccc(C#N)cc2)C(=O)N(c2cc(Cl)cc(Cl)c2)c2ncc(C(=O)NC3(c4nc(C5CCC5)no4)CC3)n21 [BI 9446] | 80.5
8 | Cc1ccc(-c2cnc([C@@]3(O)CC[C@H](C(=O)O)C(C)(C)C3)s2)cc1Nc1cccc(C(F)(F)F)n1 [MRL-SYKi-NC] | 110
9 | O=C(NCCN1CCOCC1)c1ccc2c(c1)C(=O)c1ccc(Nc3ccc(F)c(NC(=O)c4ccccc4)c3)cc1CC2 [FS-694] | 156
10 | CC(C)Oc1ccc(-c2c[nH]cc2CN(C)CCN)cc1 | 25.7

system: Colon cancer organoid; assay: Targeting of F14 CAF-induced therapy resistance in O14 CRC organoid-stroma co-culture. Cell viability is reported with Gefitinib.; assay type: functional, Homo sapiens; conditions: Homo sapiens, Concentration 10 uM; read-out: Cell Viability

Row | Structure (SMILES) | viability at 10 µM [%]
11 | O=c1nc(-c2ccccn2)sc2ccccc12 [BTZO-1] | 69.4
12 | CCC(F)(F)c1cc(N2CCC(S(C)(=O)=O)CC2)nc2sc(C(N)=O)c(N)c12 [BI-605906] | 50.7
13 | Cc1c(C(=O)O)cc(-c2ccc(C3CCNCC3)cc2)c2ccc(-c3ccc(C(F)(F)F)cc3)cc12 | 38.7
14 | CCN(CC)S(=O)(=O)Nc1cccc(-c2ccc3c(NC(=O)C4CC4)n[nH]c3c2)c1 | 50.5
15 | O=C(NNS(=O)(=O)c1ccccc1)c1cc(-c2ccnnc2)ccc1F [WM-2474] | 30.5
16 | CN(C)C(=O)N1CC[C@H](NC2=Nc3cc(F)ccc3N(CC(F)F)c3ccc(Cl)cc32)C1 | 61.6
17 | C[C@@]1(Cc2ccc(C#N)cc2)C(=O)N(c2cc(Cl)cc(Cl)c2)c2ncc(C(=O)NC3(c4nc(C5CCC5)no4)CC3)n21 [BI 9446] | 23
18 | Cc1ccc(-c2cnc([C@@]3(O)CC[C@H](C(=O)O)C(C)(C)C3)s2)cc1Nc1cccc(C(F)(F)F)n1 [MRL-SYKi-NC] | 48.6
19 | O=C(NCCN1CCOCC1)c1ccc2c(c1)C(=O)c1ccc(Nc3ccc(F)c(NC(=O)c4ccccc4)c3)cc1CC2 [FS-694] | 28.9
20 | CC(C)Oc1ccc(-c2c[nH]cc2CN(C)CCN)cc1 | 31.6

system: Colon cancer organoid; assay: Targeting of F14 CAF-induced therapy resistance in O23 CRC organoid-stroma co-culture. Cell viability is reported without Gefitinib.; assay type: functional, Homo sapiens; conditions: Homo sapiens, Concentration 10 uM; read-out: Cell Viability

Row | Structure (SMILES) | viability at 10 µM [%]
21 | O=c1nc(-c2ccccn2)sc2ccccc12 [BTZO-1] | 186
22 | CCC(F)(F)c1cc(N2CCC(S(C)(=O)=O)CC2)nc2sc(C(N)=O)c(N)c12 [BI-605906] | 102
23 | Cc1c(C(=O)O)cc(-c2ccc(C3CCNCC3)cc2)c2ccc(-c3ccc(C(F)(F)F)cc3)cc12 | 143
24 | CCN(CC)S(=O)(=O)Nc1cccc(-c2ccc3c(NC(=O)C4CC4)n[nH]c3c2)c1 | 120
25 | O=C(NNS(=O)(=O)c1ccccc1)c1cc(-c2ccnnc2)ccc1F [WM-2474] | 75.6
26 | CN(C)C(=O)N1CC[C@H](NC2=Nc3cc(F)ccc3N(CC(F)F)c3ccc(Cl)cc32)C1 | 102
27 | C[C@@]1(Cc2ccc(C#N)cc2)C(=O)N(c2cc(Cl)cc(Cl)c2)c2ncc(C(=O)NC3(c4nc(C5CCC5)no4)CC3)n21 [BI 9446] | 80.2
28 | Cc1ccc(-c2cnc([C@@]3(O)CC[C@H](C(=O)O)C(C)(C)C3)s2)cc1Nc1cccc(C(F)(F)F)n1 [MRL-SYKi-NC] | 139
29 | O=C(NCCN1CCOCC1)c1ccc2c(c1)C(=O)c1ccc(Nc3ccc(F)c(NC(=O)c4ccccc4)c3)cc1CC2 [FS-694] | 108
30 | CC(C)Oc1ccc(-c2c[nH]cc2CN(C)CCN)cc1 | 132

system: Colon cancer organoid; assay: Targeting of F14 CAF-induced therapy resistance in O23 CRC organoid-stroma co-culture. Cell viability is reported with Gefitinib.; assay type: functional, Homo sapiens; conditions: Homo sapiens, Concentration 10 uM; read-out: Cell Viability

Row | Structure (SMILES) | viability at 10 µM [%]
31 | O=c1nc(-c2ccccn2)sc2ccccc12 [BTZO-1] | 83.1
32 | CCC(F)(F)c1cc(N2CCC(S(C)(=O)=O)CC2)nc2sc(C(N)=O)c(N)c12 [BI-605906] | 53.3
33 | Cc1c(C(=O)O)cc(-c2ccc(C3CCNCC3)cc2)c2ccc(-c3ccc(C(F)(F)F)cc3)cc12 | 48.3
34 | CCN(CC)S(=O)(=O)Nc1cccc(-c2ccc3c(NC(=O)C4CC4)n[nH]c3c2)c1 | 65.5
35 | O=C(NNS(=O)(=O)c1ccccc1)c1cc(-c2ccnnc2)ccc1F [WM-2474] | 61.3
36 | CN(C)C(=O)N1CC[C@H](NC2=Nc3cc(F)ccc3N(CC(F)F)c3ccc(Cl)cc32)C1 | 43.7
37 | C[C@@]1(Cc2ccc(C#N)cc2)C(=O)N(c2cc(Cl)cc(Cl)c2)c2ncc(C(=O)NC3(c4nc(C5CCC5)no4)CC3)n21 [BI 9446] | 43
38 | Cc1ccc(-c2cnc([C@@]3(O)CC[C@H](C(=O)O)C(C)(C)C3)s2)cc1Nc1cccc(C(F)(F)F)n1 [MRL-SYKi-NC] | 51.3
39 | O=C(NCCN1CCOCC1)c1ccc2c(c1)C(=O)c1ccc(Nc3ccc(F)c(NC(=O)c4ccccc4)c3)cc1CC2 [FS-694] | 40
40 | CC(C)Oc1ccc(-c2c[nH]cc2CN(C)CCN)cc1 | 47.4

system: Colon cancer organoid; assay: Targeting of F14 CAF-induced therapy resistance in O23 CRC organoid-stroma co-culture. Cell viability is reported with SN-38.; assay type: functional, Homo sapiens; conditions: Homo sapiens, Concentration 10 uM; read-out: Cell Viability

Row | Structure (SMILES) | viability at 10 µM [%]
41 | O=c1nc(-c2ccccn2)sc2ccccc12 [BTZO-1] | 120
42 | CCC(F)(F)c1cc(N2CCC(S(C)(=O)=O)CC2)nc2sc(C(N)=O)c(N)c12 [BI-605906] | 62.6
43 | Cc1c(C(=O)O)cc(-c2ccc(C3CCNCC3)cc2)c2ccc(-c3ccc(C(F)(F)F)cc3)cc12 | 76.8
44 | CCN(CC)S(=O)(=O)Nc1cccc(-c2ccc3c(NC(=O)C4CC4)n[nH]c3c2)c1 | 69.2
45 | O=C(NNS(=O)(=O)c1ccccc1)c1cc(-c2ccnnc2)ccc1F [WM-2474] | 54.2
46 | CN(C)C(=O)N1CC[C@H](NC2=Nc3cc(F)ccc3N(CC(F)F)c3ccc(Cl)cc32)C1 | 75.2
47 | C[C@@]1(Cc2ccc(C#N)cc2)C(=O)N(c2cc(Cl)cc(Cl)c2)c2ncc(C(=O)NC3(c4nc(C5CCC5)no4)CC3)n21 [BI 9446] | 66.3
48 | Cc1ccc(-c2cnc([C@@]3(O)CC[C@H](C(=O)O)C(C)(C)C3)s2)cc1Nc1cccc(C(F)(F)F)n1 [MRL-SYKi-NC] | 73.3
49 | O=C(NCCN1CCOCC1)c1ccc2c(c1)C(=O)c1ccc(Nc3ccc(F)c(NC(=O)c4ccccc4)c3)cc1CC2 [FS-694] | 54
50 | CC(C)Oc1ccc(-c2c[nH]cc2CN(C)CCN)cc1 | 77
